The record followed here is ChEMBL document CHEMBL4184211, “Regioselectivity of thiouracil alkylation: Application to optimization of Darapladib synthesis” (Bioorg Med Chem Lett, 2018).

Test [1] concerns the target T1, Platelet-activating factor acetylhydrolase (Homo sapiens, UniProt Q13093).
T1 sequence (Q13093 whole entry): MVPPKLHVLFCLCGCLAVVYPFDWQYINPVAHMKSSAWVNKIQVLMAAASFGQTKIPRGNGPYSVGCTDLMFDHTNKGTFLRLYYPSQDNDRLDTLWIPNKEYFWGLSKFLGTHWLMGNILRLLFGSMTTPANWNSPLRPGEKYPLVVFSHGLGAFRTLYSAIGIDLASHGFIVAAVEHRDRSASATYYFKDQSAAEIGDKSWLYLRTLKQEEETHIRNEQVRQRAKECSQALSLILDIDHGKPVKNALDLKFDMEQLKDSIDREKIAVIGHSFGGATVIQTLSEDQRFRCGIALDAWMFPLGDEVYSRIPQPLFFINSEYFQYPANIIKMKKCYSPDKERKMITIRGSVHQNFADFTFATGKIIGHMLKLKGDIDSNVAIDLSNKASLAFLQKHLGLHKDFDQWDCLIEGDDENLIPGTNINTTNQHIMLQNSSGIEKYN
The test can be described thus: (§1) Inhibition of Lp-PLA2 in human plasma LDL fractions using 2-thio platelet-activating factor as substrate by […] dye based spectrophotometry.

Test [2] addresses T2, Platelet-activating factor acetylhydrolase (Homo sapiens) (UniProt Q13093).
T2 sequence (whole entry): T1 sequence (Q13093 whole entry)
The description is as §1.

With `CCN(CC)CCN(Cc1ccc(-c2ccc(C(F)(F)F)cc2)cc1)C(=O)COc1nc(SCc2ccc(F)cc2)nc2c1CCC2`, the IC50 in test [1] (read-out: IC50) was over 100 nM.

Turning to `CC(C)(C)OC(=O)COc1nc(SCc2ccc(F)cc2)nc2c1CCC2`, in test [1], the IC50 result is “Not Active”.

Turning to `CC(C)(C)OC(=O)Cn1c(SCc2ccc(F)cc2)nc(=O)c2c1CCC2`, the inhibition result in test [2] was “Dose-dependent effect”. The half-maximal inhibitory concentration (IC50) in test [1] (read-out: IC50) turned out to be 52.4 nM.

In general, IC50 refers to the concentration that inhibits the measured activity by half.
